This note sets out measurements from patent CN103800339A, “一类治疗精神分裂症的化合物及其用途” (Individual, priority 2012, dated 2014).

The assay relates to ketamine schizophrenia model rats (大鼠分裂症氯胺酮模型大鼠). Kind of assay: Social interaction test in ketamine-induced schizophrenia model rats (total activity time, aggressive and non-aggressive behaviour). The following applies: n=20, mean±SD. The class given is in vivo, rat.
Setting [1] is: day of drug withdrawal, after 7 days i.m. dosing (compounds A-E 1 mg/kg; risperidone 2 mg/kg), ketamine model Wistar rats, 7 min test, * P<0.05, ** P<0.01 vs model.

Regarding `Cc1nc2n(c(=O)c1CCN1CCC(c3noc4cc(F)ccc34)CC1)CCCC2` [利培酮], the total activity time turned out to be 18.2±6.3 (7 days after drug withdrawal, after 7 days i.m. dosing (compounds A-E 1 mg/kg; risperidone 2 mg/kg), ketamine model Wistar rats, 7 min test, * P<0.05, ** P<0.01 vs model); 13.9±2.9 (before dosing (baseline), male Wistar rats, ketamine 30 mg/kg i.p. 5 days); 23.2±6.1 under setting [1]. The “number of aggressive behaviours” value under setting [1] was 3.1±1.5. Further, the “number of non-aggressive behaviours” value under setting [1] was 6.3±3.9.
